The results in this text go back to patent publication US11384097B2, “Tetrahydroisoquinoline derivative, preparation method therefor and use thereof” (ZHEJIANG HISUN PHARMACEUTICAL CO., LTD., priority 2018, dated 2022).

Data set [1] can be described thus: Metabolic stability in rat liver microsomes. The settings on record: for half-life at 1 µM: rat liver microsomes 0.5 mg/mL, 1 μM compound, NADPH 1 mM, read-out: Half-life/(T1/2, min). It counts as in vitro ADME. As to the method:
Test Example 2. Study on the Metabolic Stability of the Compound of the Present Disclosure in Rat Liver Microsomes
The purpose of this experiment is to study the metabolic stability of the compounds of the present disclosure in rat liver microsomes.
The compounds were incubated with rat liver microsomes and coenzyme NADPH was added to initiate the reaction. At 0, 5, 15, 30 and 60 minutes, 20 μL of incubation solution was taken out and transferred to 200 μL of acetonitrile containing internal standard to stop the reaction. After protein precipitation, the resulting mixture was centrifuged at 3,700 rpm for 10 minutes, and the supernatant was taken. The supernatant was diluted 1:1 with water and analyzed by LC-MS/MS method. According to the elimination half-life of the test compound in the incubation system, the in vitro intrinsic clearance rate was calculated. Midazolam was used as the internal reference compound and all incubations were performed in duplicate in parallel.
The peak area ratio analyte/internal standard (Aanalyte/AIS) is obtained by the instrument, and the remaining percentage (% Control) is calculated from the ratio Aanalyte/AIS in the non-zero time point sample to the zero time point sample. Ln (% Control) against incubation time is plotted and a linear fit was performed.
(Liver microsomes are a subcellular fraction often used to study metabolism.)

Data set [2] can be described thus: Pharmacokinetic study in SD rats (intravenous injection and intragastric administration). It counts as in vivo, Sprague Dawley (SD) rats. The settings on record: for half-life / AUC(0-inf) / MRT / bioavailability / Cmax: male, Sprague-Dawley, rat, plasma; for half-life: read-out: Half-life T1/2 (converted); for AUC(0-inf): read-out: area under curve AUC0-∞; for MRT: read-out: residence time MRT; for bioavailability: Oral (10 mg/kg) vs Injection (1 mg/kg), read-out: Bioavailability F(%); for Cmax: read-out: blood concentration Cmax. As to the method:
Test Example 3. Oral Pharmacokinetic Studies of the Compounds of the Present Disclosure in SD Rats
SD rats were used as the experimental animal. The rats were intravenously injected or intragastrically administered with the compounds of the present disclosure, and the drug concentrations in plasma at different times were tested by LC/MS/MS methods, so as to research the pharmacokinetic characteristics of compounds of present disclosure in rats.
Forty-eight healthy adult Sprague Dawley (SD) male rats were purchased from Weitong Lihua Laboratory Animal Technology Co., Ltd., production license number: 11400700271077.
48 healthy adult male SD rats were fasted overnight and administered via tail vein injection (at a dosage of 1 mg/kg) and intragastrically administered (at a dosage of 10 mg/kg), respectively. The rats were fed 4 h after the administration.
About 0.2 mL of blood was collected from the jugular vein before administering and at 0.083 hours, 0.25 hours, 0.5 hours, 1 hour, 2 hours, 4 hours, 8 hours, 12 hours, and 24 hours after administering, and heparin sodium was used for anticoagulation. Blood samples were collected and placed on ice, and plasma was separated by centrifugation (centrifugation conditions: 1500 g, 10 min). The collected plasma was stored at −40° C.-20° C. before analysis.
10 μL of plasma sample was taken and 400 μL of acetonitrile (containing internal standard working solution, comprising 5 ng/mL verapamil and 50 ng/mL glibenclamide) was added. The resulting mixture was vortexed for 10 minutes, and centrifuged at 3700 rpm for 10 minutes. 70 μL of the supernatant was taken, and […] of water was added. The resulting mixture was vortexed for 10 minutes, and 2 μL of the mixture was transferred to the LC-MS/MS for sample analysis.

Another data set has as its target T1, Human AT2R (Homo sapiens, UniProt P50052).
T1 construct: Terbium (Tb) donor label on the receptor; From my own knowledge, the Tag-lite format usually uses an N-terminal SNAP-tag fusion labelled with Lumi4-Tb; expressed in transfected cells
T1 sequence (P50052 1-363): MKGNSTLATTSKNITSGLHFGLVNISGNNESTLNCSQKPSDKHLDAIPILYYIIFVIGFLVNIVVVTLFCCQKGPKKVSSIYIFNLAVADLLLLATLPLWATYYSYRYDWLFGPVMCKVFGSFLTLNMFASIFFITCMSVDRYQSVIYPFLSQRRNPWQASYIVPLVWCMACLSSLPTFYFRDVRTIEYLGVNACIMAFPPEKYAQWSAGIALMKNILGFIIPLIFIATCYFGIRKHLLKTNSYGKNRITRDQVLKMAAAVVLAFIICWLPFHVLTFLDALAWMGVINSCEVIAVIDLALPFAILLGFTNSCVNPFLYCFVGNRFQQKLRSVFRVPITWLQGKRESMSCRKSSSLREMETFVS
As to the kind of experiment: Antagonistic activity assay on human AT2R ligand binding (Tag-lite HTRF, Tb-labeled-AT2R cells). The settings on record: AT2 ligand binding, red agonist fluorescent ligand. (In general: TR-FRET usually uses a lanthanide donor and a delayed reading to cut background.)

Where [3] appears, read: iv, Injection (1 mg/kg), tail vein.

Read-outs that look alike come from different tables or passages of the source.

Protocol for Human AT2R: Antagonistic Activity Assay of the Compound of the Present Disclosure on Human AT2R Ligand Binding
According to standard methods, all compounds were dissolved in dimethyl sulfoxide and prepared as 10 mM stock solutions.
(3) Each of the diluted compound in step (2) was transferred to a working plate (3657, Corning) at 160 nL/well, at 200 g, at room temperature for 1 minute;
(4) 40 μl 1×TLB was added to the above working plate, and it was centrifuged at 200 g (centrifugal force) at room temperature for 1 minute, shook on a shaker for 15 minutes to mix well, and centrifuged at 200 g (working concentration of the compound was 4×) at room temperature for 1 minute for later use;
(6) 5 mL 1×TLB was taken in a 15 mL centrifuge tube;
(7) a Tb-labeled-AT2R cells were frozen and thawed in a 37° C. water bath until the ice was completely melted (1-2 minutes);
(8) The frozen and thawed cells were rapidly transferred to the 1×TLB in step (6), and the resulting solution was mixed gently, and then centrifuged at 1200 g at room temperature for 5 minutes;
After being mixed well, the resulting mixture was placed at room temperature for late use;
(11) The reaction plate was centrifuged at 200 g at room temperature for 1 minute, and stood for 1 hour at room temperature of 25° C., and then it was centrifuged at 200 g at room temperature for 1 minute. The data was collected using Envision HTRF microplate reader, and IC50 was calculated using a nonlinear fitting formula.

For orientation: MRT means the average time that molecules of a dose stay in the body. With `COc1ccc2c(c1OCc1ccccc1)C[C@@H](C(=O)O)N(c1nc3ccc(F)cc3o1)C2` [Example 14, (S)-5-(Benzyloxy)-2-(6-fluorobenzo[d]oxazol-2-yl)-6-methoxy-1,2,3,4-tetrahydroisoquinoline-3-carboxylic acid], the half-life at 1 µM in data set [1] worked out at 233 min. For the same compound, in data set [2] (Oral (10 mg/kg)), the half-life was 3.6 ± 0.2 h, the AUC(0-inf) is 29600 ± 4670 ng·h/mL and the MRT was 5.3 ± 0.4 h. In data set [2] (setting [3]), the AUC(0-inf) was 8230 ± 1090 ng·h/mL and the MRT was 1.9 ± 0.4 h.

A word on the IC50: it is the midpoint of a concentration-inhibition curve. Higher therefore signals lower potency. The term bioavailability denotes dose-corrected exposure relative to a reference, in per cent. On Human AT2R, `COc1ccc2c(c1OCc1ccccc1)C[C@@H](C(=O)O)N(c1nc3ccc(C#N)cc3o1)C2` [Example 15, (S)-5-(Benzyloxy)-2-(6-cyanobenzo[d]oxazol-2-yl)-6-methoxy-1,2,3,4-tetrahydroisoquinoline-3-carboxylic acid] returned an IC50 of 36 nM. Moreover, in data set [1], the half-life at 1 µM was 317 min. Also, the “Half-life T1/2” value in data set [2] (Injection (1 mg/kg), tail vein) is listed as 4.2 ± 1.2 h. The bioavailability in data set [2] came out at 47.3%. In data set [2] (Oral (10 mg/kg)), the half-life was 4.7 ± 1.3 h, the AUC(0-inf) worked out at 45400 ± 11900 ng·h/mL and the MRT was 6.3 ± 1.1 h. In addition, in data set [2] (setting [3]), the AUC(0-inf) came out at 9590 ± 579 ng·h/mL and the MRT came out at 2 ± 0.6 h.

As for `CCS(=O)(=O)NC(=O)[C@@H]1Cc2c(ccc(OC)c2COc2ccccc2)CN1c1nc2ccc(F)cc2o1` [Example 19, (S)—N-(ethylsulfonyl)-2-(6-fluorobenzo[d]oxazol-2-yl)-6-methoxy-5-(phenoxymethyl)-1,2,3,4-tetrahydroisoquinoline-3-carboxamide], the 50% inhibitory concentration (IC50) at Human AT2R came to 25 nM. In data set [1], the half-life at 1 µM was 175 min.

For `COc1ccc2c(c1OCc1ccccc1)C[C@@H](C(=O)O)N(c1nc3ccncc3o1)C2` [Example 22, (S)-5-(benzyloxy)-6-methoxy-2-(oxazolo[5,4-c]pyridin-2-yl)-1,2,3,4-tetrahydroisoquinoline-3-carboxylic acid], the “remaining original drug after incubation in rat liver microsomes” value in data set [1] (rat liver microsomes, 60 minutes) was ~100%. Further, the bioavailability in data set [2] is 44.6%. In addition, in data set [2] (Oral (10 mg/kg)), the half-life was 3.9 ± 0.8 h, the AUC(0-inf) came out at 35700 ± 6090 ng·h/mL, the Cmax is 15900 ± 11000 ng/mL and the MRT was found to be 3.7 ± 0.8 h. Further, in data set [2] (setting [3]), the half-life was 2 ± 0.6 h, the AUC(0-inf) amounted to 8020 ± 635 ng·h/mL and the MRT is 1.2 ± 0.3 h.

Take `COc1ccc2c(c1OCc1ccc(F)cc1)C[C@@H](C(=O)O)N(c1nc3ccc(F)cc3o1)C2` [Example 29, (S)-2-(6-fluorobenzo[d]oxazol-2-yl)-5-((4-fluorobenzyl)oxy)-6-methoxy-1,2,3,4-tetrahydroisoquinoline-3-carboxylic acid]: the half-life at 1 µM in data set [1] amounted to 164 min.

For `COc1ccc(COc2c(OC)ccc3c2C[C@@H](C(=O)O)N(c2nc4ccc(F)cc4o2)C3)cc1` [Example 30, (S)-2-(6-fluorobenzo[d]oxazol-2-yl)-6-methoxy-5-((4-methoxybenzyl)oxy)-1,2,3,4-tetrahydroisoquinoline-3-carboxylic acid], on Human AT2R, the IC50 worked out at 4 nM. Moreover, the half-life at 1 µM in data set [1] amounted to 251 min. In data set [2] (Injection (1 mg/kg), tail vein), the “Half-life T1/2” value amounted to 2.4 ± 0.8 h. Further, the bioavailability in data set [2] is 22.1%. Besides, in data set [2] (Oral (10 mg/kg)), the half-life was 3.3 ± 0.5 h, the AUC(0-inf) came to 7130 ± 1630 ng·h/mL and the mean residence time MRT was determined as 3.6 ± 0.4 h. Further, in data set [2] (setting [3]), the AUC(0-inf) worked out at 3230 ± 659 ng·h/mL and the MRT was 1.2 ± 0.4 h.

Compound `COc1ccc(COc2c(OC)ccc3c2C[C@@H](C(=O)O)N(c2nc4ccc(F)cc4o2)C3)nc1` [Example 36, (S)-2-(6-fluorobenzo[d]oxazol-2-yl)-6-methoxy-5-((5-methoxypyridin-2-yl)methoxy)-1,2,3,4-tetrahydroisoquinoline-3-carboxylic acid] displayed an IC50 at Human AT2R of 10 nM. Also, in data set [1], the half-life at 1 µM came to 768 min. Also, in data set [2], the bioavailability is 53.7%. For the same compound, in data set [2] (Oral (10 mg/kg)), the half-life is 3.8 ± 1 h, the AUC(0-inf) amounted to 24700 ± 9400 ng·h/mL, the Cmax was 4740 ± 662 ng/mL and the MRT is 5.4 ± 1.3 h. In data set [2] (setting [3]), the half-life is 4.8 ± 2.6 h, the AUC(0-inf) stood at 4600 ± 240 ng·h/mL and the MRT came out at 2.3 ± 0.6 h.

For `COc1ccc(COc2c(OC)ccc3c2C[C@@H](C(=O)O)N(c2nc4ccc(F)cc4o2)C3)cn1` [Example 39, (S)-2-(6-fluorobenzo[d]oxazol-2-yl)-6-methoxy-5-((6-methoxypyridin-3-yl)methoxy)-1,2,3,4-tetrahydroisoquinoline-3-carboxylic acid], the half-life at 1 µM in data set [1] is 845 min. Moreover, the “Half-life T1/2” value in data set [2] (Injection (1 mg/kg), tail vein) turned out to be 2.3 ± 0.4 h. Also, the bioavailability in data set [2] came out at 45.3%. Moreover, in data set [2] (Oral (10 mg/kg)), the half-life was 3.6 ± 0.3 h, the AUC(0-inf) turned out to be 15300 ± 2260 ng·h/mL and the MRT was 4.3 ± 0.6 h. In data set [2] (setting [3]), the AUC(0-inf) was 3380 ± 405 ng·h/mL and the MRT was determined as 1.9 ± 0.3 h.

The compound `COc1ccc(COc2c(OC)ccc3c2C[C@@H](C(=O)O)N(c2nc4ccc(C#N)cc4o2)C3)cc1` [Example 42, (S)-2-(6-cyanobenzo[d]oxazol-2-yl)-6-methoxy-5-((4-methoxybenzyl)oxy)-1,2,3,4-tetrahydroisoquinoline-3-carboxylic acid] displayed an IC50 at Human AT2R of 6 nM. Also, the half-life at 1 µM in data set [1] was 451 min.

For `COc1ccc2c(c1OCc1ccccc1)C[C@@H](C(=O)O)N(C(=O)C(c1ccccc1)c1ccccc1)C2` [olodanrigan, reference compound], the half-life at 1 µM in data set [1] came to 96.3 min. The bioavailability in data set [2] was found to be 12.1%. For the same compound, in data set [2] (Oral (10 mg/kg)), the half-life was 1.5 ± 0.3 h, the AUC(0-inf) came out at 1480 ± 715 ng·h/mL, the Cmax is 470 ± 197 ng/mL and the MRT is 2.6 ± 1 h. Further, in data set [2] (setting [3]), the half-life is 1.6 ± 0.3 h, the AUC(0-inf) came to 1230 ± 96 ng·h/mL and the MRT stood at 0.92 ± 0.16 h.
